Test results as given in patent US7754741B2, “Pyridine derivatives as fungicidal compounds” (Bayer Cropscience S.A., priority 2003, dated 2010).

How the values were obtained:
[1] = test system: Botrytis cinerea; test: In vivo test on Botrytis cinerea (cucumber grey mould); settings: Botrytis cinerea; dose 330 ppm; cucumber plants sprayed 24 hours before contamination; grading 5/7 days after contamination vs control plants; read-out: protection (good (at least 50%) to total)
Protocol: In Vivo Test on Botrytis cinerea (Cucumber Grey Mould)
(§1) The active ingredient tested is prepared by potter homogenisation in a concentrated suspension type formulation at 100 g/l. This suspension is then diluted with water to obtain the desired active material concentration.
(§2) Cucumber plants (Marketer variety) in starter cups, sown on a 50/50 peat soil-pozzolana substrate and grown at 18-20° C., are treated at the cotyledon Z11 stage by spraying with the aqueous suspension described above. Plants, used as controls, are treated with an aqueous solution not containing the active material.
After 24 hours, the plants are contaminated by depositing drops of an aqueous suspension of Botrytis cinerea spores (150,000 spores per ml) on upper surface of the leaves. The spores are collected from a 15-day-old culture and are suspended in a nutrient solution composed of: • 20 g/L of gelatin • 50 g/L of cane sugar • 2 g/L of NH4NO3 • 1 g/L of KH2PO4
The contaminated cucumber plants are settled for 5/7 days in a climatic room at 15-11° C. (day/night) and at 80% relative humidity.
Grading is carried out 5/7 days after the contamination, in comparison with the control plants. Under these conditions, good (at least 50%) to total protection is observed at a dose of 330 ppm with the following compounds :B-7, B-8, B-13, B-14, C-3, C-12, C-13, C-14, C-15, C-16, D-4, D-5, E-4, H-1, H-2, H-4, H-7, H-9, H-22, J-1, J-2, J-3, J-19, J-31, J-32, J-33, J-34, J-35, J-37, J-39, J-43, J-44, R-1, R-10, R-23, R-24, R-26, R-31, V-1, V-8.

[2] = test system: Pyrenophora teres; test: In vivo test on Pyrenophora teres (barley net blotch); settings: Pyrenophora teres, 288 h; dose 330 ppm; barley plants sprayed 24 hours before contamination; grading 12 days after contamination vs control plants; read-out: protection (good (at least 50%) to total)
Protocol: In Vivo Test on Pyrenophora teres (Barley Net Blotch)
as §1
as §2, with “Barley” for “Cucumber”, “(Express” for “(Marketer”, “12°” for “18-20°”, “1-leaf” for “cotyledon Z11”, “stage (10 cm tall)” for “stage”
After 24 hours, the plants are contaminated by spraying them with an aqueous suspension of Pyrenophora teres spores (12,000 spores per ml). The spores are collected from a 12-day-old culture The contaminated barley plants are incubated for 24 hours at about 20° C. and at 100% relative humidity, and then for 12 days at 80% relative humidity.

[3] = test system: Alternaria brassicae; test: In vivo test on Alternaria brassicae (leaf spot of crucifers); settings: Alternaria brassicae; dose 330 ppm; radish plants sprayed 24 hours before contamination; grading 6 to 7 days after contamination vs control plants; read-out: protection (good (at least 50%) to total)
Protocol: In Vivo Test on Alternaria brassicae (Leaf Spot of crucifers)
as §1
Radish plants (Pernot variety) in starter cups, sown on a 50/50 peat soil-pozzolana substrate and grown at 18-20° C., are treated at the cotyledon stage by spraying with the aqueous suspension described above.
(§3) Plants, used as controls, are treated with an aqueous solution not containing the active material.
After 24 hours, the plants are contaminated by spraying them with an aqueous suspension of Alternaria brassicae spores (40,000 spores per cm^3). The spores are collected from a 12-13-day-old culture.
The contaminated radish plants are incubated for 6-7 days at about 18° C., under a humid atmosphere.
Grading is carried out 6 to 7 days after the contamination, in comparison with the control plants.

[4] = test system: Erysiphe graminis f. sp. tritici; test: In vivo test on Erysiphe graminis f. sp. tritici (wheat powdery mildew); settings: Blumeria graminis, wheat plants sprayed 24 hours before contamination, grading 7 to 14 days after contamination vs control plants, read-out: protection (good (at least 50%) to total)
Protocol: In Vivo Test on Erysiphe graminis f. sp. tritici (Wheat Powdery Mildew)
as §1
Wheat plants (Audace variety) in starter cups, sown on 50/50 peat soil-pozzolana substrate and grown at 12° C., are treated at the 1-leaf stage (10 cm tall) by spraying with the aqueous suspension described above.
as §3
After 24 hours, the plants are contaminated by dusting them with Erysiphe graminis f. sp. tritici spores, the dusting being carried out using diseased plants. Grading is carried out 7 to 14 days after the contamination, in comparison with the control plants.
Under these conditions, good (at least 50%) to total protection is observed at a dose of 330 ppm with the following compounds: A-4, B-4, B-8, C-2, C-3, C-12, D-4, F-1, H-1, H-2, H-4, H-20, I-3, J-1, J-2, J-3, J-19, J-20, J-31, J-37, J-40, J-55, J-57, J-58, J-59, J-61, K-1, M-5, M-6, R-1, R-10, R-26, R-29, V-7.

Row | Structure (SMILES) | pest or weed control at 330 ppm [1] [%] | pest or weed control at 330 ppm [2] [%] | pest or weed control at 330 ppm [3] [%] | pest or weed control at 330 ppm [4] [%]
1 | Cc1cc(C(=O)NCCc2ncc(C(F)(F)F)cc2Cl)c(C)o1 [Compound B-7] | ≥ 50 | ≥ 50 | ≥ 50 | 
2 | Cc1nn(C)cc1C(=O)NCCc1ncc(C(F)(F)F)cc1Cl [Compound J-2] | ≥ 50 | ≥ 50 | ≥ 50 | ≥ 50
3 | O=C(NCCc1ncc(C(F)(F)F)cc1Cl)c1ccsc1I [Compound D-4] | ≥ 50 | ≥ 50 | ≥ 50 | ≥ 50
4 | Cc1ncccc1C(=O)NCCc1ncc(C(F)(F)F)cc1Cl [Compound R-10] | ≥ 50 | ≥ 50 | ≥ 50 | ≥ 50
5 | Cc1nn(C)c(F)c1C(=O)NCCc1ncc(C(F)(F)F)cc1Cl [Compound J-1] | ≥ 50 | ≥ 50 | ≥ 50 | ≥ 50
6 | Cc1onc(-c2c(F)cccc2Cl)c1C(=O)NCCc1ncc(C(F)(F)F)cc1Cl [Compound M-6] |  |  | ≥ 50 | ≥ 50
7 | O=C(NCCc1ncc(C(F)(F)F)cc1Cl)c1occc1Br [Compound A-4] |  | ≥ 50 | ≥ 50 | ≥ 50
8 | O=C(NCCc1ncc(C(F)(F)F)cc1Cl)c1cccnc1Br [Compound R-26] | ≥ 50 | ≥ 50 | ≥ 50 | ≥ 50
9 | Cn1cc(C(=O)NCCc2ncc(C(F)(F)F)cc2Cl)c(Cl)n1 [Compound J-57] |  | ≥ 50 |  | ≥ 50
10 | Cc1c(F)c(F)nc(CCNC(=O)c2cn(C)nc2C(F)F)c1F [Compound J-40] |  | ≥ 50 |  | ≥ 50
11 | O=C(NCCc1ncc(Cl)cc1Br)c1sccc1I [Compound C-16] | ≥ 50 | ≥ 50 | ≥ 50 | 
12 | Cc1cc(C(=O)NCCc2ncc(C(F)(F)F)cc2Cl)n(C(C)(C)C)n1 [Compound K-1] |  |  |  | ≥ 50
13 | O=C(NCCc1ncc(C(F)(F)F)cc1Cl)c1sccc1Cl [Compound C-2] |  |  | ≥ 50 | ≥ 50
14 | Cc1onc(-c2c(Cl)cccc2Cl)c1C(=O)NCCc1ncc(C(F)(F)F)cc1Cl [Compound M-5] |  |  | ≥ 50 | ≥ 50
15 | Cc1nn(C)cc1C(=O)NCCc1ncc(Cl)cc1Cl [Compound J-19] | ≥ 50 | ≥ 50 | ≥ 50 | ≥ 50
16 | CON=C(C)c1cnc(CCNC(=O)c2cccnc2Cl)c(Cl)c1 [Compound R-23] | ≥ 50 | ≥ 50 | ≥ 50 | 
17 | Cn1cc(C(=O)NCCc2ncc(Cl)cc2Br)c(C(F)F)n1 [Compound J-39] | ≥ 50 | ≥ 50 | ≥ 50 | 
18 | Cc1cc(Br)cnc1CCNC(=O)c1cn(C)nc1C(F)F [Compound J-32] | ≥ 50 | ≥ 50 | ≥ 50 | 
19 | CC1=[SH]C(C(=O)NCCc2ncc(Cl)cc2Cl)=C(C(F)(F)F)N1 [Compound H-4] | ≥ 50 | ≥ 50 | ≥ 50 | ≥ 50

Row | Structure (SMILES) | pest or weed control at 330 ppm [1] [%] | pest or weed control at 330 ppm [2] [%] | pest or weed control at 330 ppm [3] [%] | pest or weed control at 330 ppm [4] [%]
20 | Cn1cc(C(=O)NCCc2ncc(Cl)cc2F)c(C(F)F)n1 [Compound J-33] | ≥ 50 | ≥ 50 | ≥ 50 | 
21 | Cn1cc(C(=O)NCCc2nc(Cl)c(Cl)cc2Cl)c(C(F)(F)F)n1 [Compound J-20] |  | ≥ 50 |  | ≥ 50
22 | Cn1nc(C(=O)NCCc2ncc(C(F)(F)F)cc2Cl)c(Br)c1[N+](=O)[O-] [Compound I-3] |  | ≥ 50 | ≥ 50 | ≥ 50
23 | Cc1occc1C(=O)NCCc1ncc(Cl)cc1Cl [Compound B-13] | ≥ 50 | ≥ 50 | ≥ 50 | 
24 | O=C(NCCc1ncc(C(F)(F)F)cc1Cl)c1cccnc1Cl [Compound R-1] | ≥ 50 | ≥ 50 | ≥ 50 | ≥ 50
25 | Cn1cc(C(=O)NCCc2ncc(C(F)(F)F)cc2Cl)c(I)n1 [Compound J-58] |  | ≥ 50 |  | ≥ 50
26 | Cc1ccsc1C(=O)NCCc1ncc(C(F)(F)F)cc1Cl [Compound C-3] | ≥ 50 | ≥ 50 | ≥ 50 | ≥ 50
27 | Cc1cc(C(=O)NCCc2ncc(C(F)(F)F)cc2Cl)c(C(F)(F)F)o1 [Compound B-8] | ≥ 50 | ≥ 50 | ≥ 50 | ≥ 50
28 | Cc1cscc1C(=O)NCCc1ncc(C(F)(F)F)cc1Cl [Compound D-5] | ≥ 50 | ≥ 50 | ≥ 50 | 
29 | Cn1cc(C(=O)NCCc2ncc(C(F)(F)F)cc2Cl)c(C(F)F)n1 [Compound J-3] | ≥ 50 | ≥ 50 | ≥ 50 | ≥ 50
30 | O=C(NCCc1ncc(Cl)cc1Cl)c1sccc1I [Compound C-13] | ≥ 50 | ≥ 50 | ≥ 50 | 
31 | O=C(NCCc1ncc(Cl)cc1F)c1sccc1I [Compound C-15] | ≥ 50 | ≥ 50 |  | 
32 | O=C(NCCc1ncc(Cl)cc1F)c1cccnc1Cl [Compound R-24] | ≥ 50 |  | ≥ 50 | 
33 | Cc1oc(C(C)(C)C)cc1C(=O)NCCc1ncc(C(F)(F)F)cc1Cl [Compound B-4] |  |  | ≥ 50 | ≥ 50
34 | Cn1cccc1C(=O)NCCc1ncc(C(F)(F)F)cc1Cl [Compound F-1] |  |  |  | ≥ 50
35 | O=C(NCCc1ncc(C(F)(F)F)cc1Cl)c1sccc1I [Compound C-12] | ≥ 50 | ≥ 50 | ≥ 50 | ≥ 50
36 | O=C(NCCc1ncc(C(F)(F)F)cc1Cl)c1ccoc1I [Compound B-14] | ≥ 50 | ≥ 50 | ≥ 50 | 
37 | Cn1cc(C(=O)NCCc2nc(Cl)c(Cl)cc2Cl)c(C(F)F)n1 [Compound J-34] | ≥ 50 | ≥ 50 |  | 
